By IC50 is commonly meant the concentration needed to halve the response being measured. Lower therefore signals higher potency.

Among the data in patent US8063225B2, “Tricyclic compound derivatives useful in the treatment of neoplastic diseases, inflammatory disorders and immunomodulatory disorders” (Chembridge Corporation, priority 2006, dated 2011) are IC50 values, retold here.

Structures are written as SMILES.

Assay [1] has as its target T1, InsR (Homo sapiens, UniProt P06213).
T1 construct: 6×His- or GST-tagged kinase domain fragments of the corresponding RTKs expressed in baculovirus system; host or cells: baculovirus system
Briefly: Tyrosine kinase assay (Kinase-Glo or AlphaScreen), InsR. The conditions noted are these: biochemical tyrosine kinase assay. A digest of the protocol: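 Phosphorylation of poly(Glu-Tyr) by baculovirus-made kinase domains, 10 μM ATP, measured either as ATP depletion (Kinase-Glo, 37° C, 1 h) or phosphotyrosine AlphaScreen (room temperature, 30 min plus 60 min with beads).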
A general note: Kinase-Glo reads ATP consumption through a luciferase reaction.

Assay [2] addresses T2, IGF1 receptor (Homo sapiens, UniProt P08069).
T2 construct: MCF7 human breast cancer cells expressing IGF1 receptor; endogenous in cells; host or cells: MCF7 human breast cancer cells
Description: ELISA-based assay of IGF1 receptor autophosphorylation inhibition in cells. The format is cell-based. Particulars: IGF1R phosphorylation inhibition in MCF7 cells. As for the experimental part: In another embodiment, compounds that interact with the IGF1R kinase domain are tested in a cell-based assay system. In accordance with this embodiment, cells expressing a full-length IGF1 receptor or a fragment thereof containing the IGF1R kinase domain, are contacted with a candidate or a control compound and the ability of the compound to block tyrosine kinase activity of IGF1R within a cell is determined. This assay may be used to screen a single compound or a large library of candidate compounds. Typically, the cells or cell lines are of mammalian origin and they can express the IGF1 receptor, or functional IGF1R kinase domain fragment, endogenously or be genetically engineered to express the IGF1R, or functional fragment thereof. The ability of the candidate compound to inhibit IGF1R kinase activity can be determined by methods known to those skilled in the art. For example, the inhibition can be determined by ELISA-type assay or Western blot analysis with cell lysates or immunoprecipitated IGF1R receptor using various anti-IGF1R and anti-phosphotyrosine antibodies.
In general, cells expressing IGF1R are treated with modulators (i.e., inhibitors or activators) of IGF1R kinase activity and cell lysates are produced from these treated cells. IGF1Rs are isolated from the lysate by immunoprecipitation and analyzed for phosphotyrosine content. Alternatively, or in addition, cellular protein substrates phosphorylated by IGFR may be immunoprecipitated from the lysates and their degree of tyrosine phosphorylation determined.
MCF7 human breast cancer cells expressing IGF1 receptor or an engineered […] fibroblast cell line NIH 3T3 overexpressing full-length IGF1R are an exemplary cellular models in which to perform such assays. Such cells may be maintained in DMEM medium supplemented with 10% fetal bovine serum (FBS), 4% L-glutamine, 1% antibiotic solution (penicillin-Streptomycin) in a humidified atmosphere of 95% air and 5% CO2 at 37° C. Confluent cells in T175 cell culture flasks are incubated overnight with serum-free DMEM medium. After the serum starvation step, the cells are detached and split into a standard 96-well cell culture plate (one T175 flask per plate, 30 μl of cell suspension per plate well). Tested inhibitors from their 10 mM stock solutions in DMSO are subsequently added at various concentrations in serum-free DMEM medium for 1 hour incubation at 37° C. in CO2-incubator; total DMSO concentration in both treated and control wells is adjusted to 1%. Cells are then stimulated for 10 minutes with 100 nM IGF-1 added in 30 μl DMEM. After treatment, cells are lysed by addition of 30 μl of 4× lysis buffer (phosphate-buffered saline (PBS), 2% Triton-X100, 1 mM phenylmethylsulphonyl fluoride (PMSF) and 8 mM activated orthovanadate), mixing and incubation for 15 minute at room temperature. To prepare assay plates, 96-well ELISA Plates (Pierce Chemical, Reacti-bind plates) were coated by goat-anti-rabbit Fc antiserum by adding 0.25 μg antiserum per well in 0.2M sodium bicarbonate buffer per well and incubating overnight at 4° C. After incubation, the plate is washed three times by PBS with 0.02% Tween-20, supplied with 25 ng/50 μl per well of anti-IGF1R antibody (C-20, Santa Cruz Biotechnology) and incubated for several hours to overnight. Prior to the addition of the prepared cellular lysates, the antibody solution is aspirated, wells washed with PBS and supplied with 25 μl per well of Starting Block buffer (Pierce Chemical).
To measure tyrosine phosphorylation of the beta-subunits of the IGF1R, 25-50 μl of the lysates are transferred from the stimulation plate to the wells of the prepared assay plate and incubated overnight at 4° C. The wells are washed with PBS with 0.02% Tween-20, incubated with 50 μl of 1:3000 dilution of anti-phosphotyrosine 4G10-HRP antibody conjugate (Upstate Biotechnology) for 2 hours at room temperature and washed again. […]

T1 sequence (P06213 1023-1298 limits assumed, species assumed): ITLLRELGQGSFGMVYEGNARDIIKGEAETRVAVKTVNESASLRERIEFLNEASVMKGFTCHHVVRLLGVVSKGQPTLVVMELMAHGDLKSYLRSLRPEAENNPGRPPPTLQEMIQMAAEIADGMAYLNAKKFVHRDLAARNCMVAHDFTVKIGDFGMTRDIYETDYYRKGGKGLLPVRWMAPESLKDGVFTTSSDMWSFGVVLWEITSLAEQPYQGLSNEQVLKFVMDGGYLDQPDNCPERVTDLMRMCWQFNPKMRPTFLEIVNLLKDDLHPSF
T2 sequence (P08069 741-1367 limits assumed): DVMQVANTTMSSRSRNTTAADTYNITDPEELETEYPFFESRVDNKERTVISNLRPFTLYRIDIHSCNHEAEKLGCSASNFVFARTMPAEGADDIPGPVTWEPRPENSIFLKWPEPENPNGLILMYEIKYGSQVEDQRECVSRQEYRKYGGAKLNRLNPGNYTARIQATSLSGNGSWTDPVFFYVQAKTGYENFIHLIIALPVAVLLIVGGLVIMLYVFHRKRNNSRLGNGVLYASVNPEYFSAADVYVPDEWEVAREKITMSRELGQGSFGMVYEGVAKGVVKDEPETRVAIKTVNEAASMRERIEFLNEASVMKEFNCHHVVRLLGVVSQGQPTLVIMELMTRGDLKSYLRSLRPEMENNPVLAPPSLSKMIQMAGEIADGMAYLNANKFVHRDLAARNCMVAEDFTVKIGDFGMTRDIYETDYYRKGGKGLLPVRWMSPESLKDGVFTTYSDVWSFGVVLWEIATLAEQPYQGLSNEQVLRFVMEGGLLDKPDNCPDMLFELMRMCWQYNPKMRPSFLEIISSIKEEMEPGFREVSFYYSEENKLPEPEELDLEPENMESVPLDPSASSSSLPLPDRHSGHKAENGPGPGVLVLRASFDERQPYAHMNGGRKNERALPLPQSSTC
T2 sequence (P08069 31-736 partner limits assumed): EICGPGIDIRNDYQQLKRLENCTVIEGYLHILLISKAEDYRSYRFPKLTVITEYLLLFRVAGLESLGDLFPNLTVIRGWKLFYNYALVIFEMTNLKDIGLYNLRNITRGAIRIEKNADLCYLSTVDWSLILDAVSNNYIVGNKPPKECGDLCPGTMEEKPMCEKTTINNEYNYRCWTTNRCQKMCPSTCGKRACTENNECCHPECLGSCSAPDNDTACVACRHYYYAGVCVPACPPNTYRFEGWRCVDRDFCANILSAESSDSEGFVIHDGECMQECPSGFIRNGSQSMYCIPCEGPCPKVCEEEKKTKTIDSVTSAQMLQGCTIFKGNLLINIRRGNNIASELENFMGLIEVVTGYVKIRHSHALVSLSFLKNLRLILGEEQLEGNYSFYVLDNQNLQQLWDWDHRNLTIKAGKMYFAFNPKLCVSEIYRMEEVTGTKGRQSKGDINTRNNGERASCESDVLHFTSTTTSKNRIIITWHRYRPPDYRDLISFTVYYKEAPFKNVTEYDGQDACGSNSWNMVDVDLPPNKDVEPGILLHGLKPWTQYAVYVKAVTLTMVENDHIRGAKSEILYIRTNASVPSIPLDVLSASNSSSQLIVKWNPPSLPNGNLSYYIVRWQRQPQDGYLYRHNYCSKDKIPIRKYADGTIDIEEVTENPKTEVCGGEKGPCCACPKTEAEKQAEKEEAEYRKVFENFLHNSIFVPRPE

Take `O=C1c2cc3nc(-c4c(NC[C@@H](O)c5cccc(Cl)c5)cc[nH]c4=O)[nH]c3cc2C(=O)N1[C@@H]1CN2CCC1CC2` [compound 33]: the IC50 in assay [1] is less than 0.5 µM; in assay [2] it was greater than 15 µM.
For the compound `CCN1CCC(N2Cc3cc4nc(-c5c(NC[C@@H](O)COc6ccc(C)cc6C)cc[nH]c5=O)[nH]c4cc3C2=O)CC1` [compound 144], the IC50 in assay [1] and in assay [2] was 0.5 to 5 µM throughout.
As to `Cc1ccc(OC[C@H](O)CNc2cc[nH]c(=O)c2-c2nc3cc4c(cc3[nH]2)C(=O)N(C2CCN(C)CC2)C4=O)cc1Cl` [compound 99], the values for the IC50 in assay [1] and in assay [2] were 0.5 to 5 µM and greater than 15 µM, respectively.
In the case of `Cc1ccc(OC[C@@H](O)CNc2cc[nH]c(=O)c2-c2nc3cc4c(cc3[nH]2)C(=O)N([C@@H]2CCN(C)C2)C4=O)c(C)c1` [compound 107], the IC50 is less than 0.5 µM in assay [1] and 5 to 15 µM in assay [2].
For the compound `Cc1ccc(OC[C@@H](O)CNc2cc[nH]c(=O)c2-c2nc3cc4c(cc3[nH]2)C(=O)N([C@H]2CCN(C)C2)C4=O)c(C)c1` [compound 106], the IC50 in assay [1] is less than 0.5 µM; in assay [2] it was 5 to 15 µM.
With `Cc1ccc(OC[C@H](O)CNc2cc[nH]c(=O)c2-c2nc3c(C)c4c(cc3[nH]2)C(=O)N(C2CCN(C)CC2)C4)c(C)c1` [compound 139], the half-inhibitory concentration (IC50) in assay [1] is less than 0.5 µM; in assay [2], 0.5 to 5 µM.
In the case of `Cc1ncsc1CCN1C(=O)c2cc3nc(-c4c(NC[C@@H](O)c5cccc(Cl)c5)cc[nH]c4=O)[nH]c3cc2C1=O` [compound 32], the IC50 is greater than 15 µM in assay [1] and 5 to 15 µM in assay [2].
Turning to `Cc1cc(C)c(OC[C@H](O)CNc2cc[nH]c(=O)c2-c2nc3cc4c(cc3[nH]2)C(=O)N(C2CCN(C)CC2)C4=O)cc1Cl` [compound 108], the values for the IC50 in assay [1] and in assay [2] were 0.5 to 5 µM and 5 to 15 µM, respectively.
For the compound `CN1CCC(N2C(=O)c3cc4nc(-c5c(NC[C@@H](O)COc6cccc(C(F)(F)F)c6)cc[nH]c5=O)[nH]c4cc3C2=O)CC1` [compound 97], the IC50 in assay [1] and in assay [2] was 0.5 to 5 µM in each case.
Turning to `Cc1ccc2c(ccn2C[C@H](O)CNc2cc[nH]c(=O)c2-c2nc3cc4c(cc3[nH]2)C(=O)N(C2CCN(C)CC2)C4=O)c1` [compound 131], the IC50 in assay [1] and in assay [2] was 0.5 to 5 µM in each case.
For the compound `CN1CCC(N2C(=O)c3cc4nc(-c5c(N[C@H](CO)Cc6c[nH]cn6)cc[nH]c5=O)[nH]c4cc3C2=O)CC1` [compound 2], the IC50 in assay [1] and in assay [2] was greater than 15 µM each time.
As for `Cc1ccc(OC[C@H](O)CNc2cc[nH]c(=O)c2-c2nc3cc4c(cc3[nH]2)CN(C2CCN(C)CC2)C4=O)c(C)c1` [compound 130], the IC50 is less than 0.5 µM in assay [1] and 0.5 to 5 µM in assay [2].
In the case of `C[C@H](O)CN1C(=O)c2cc3nc(-c4c(NC[C@@H](O)c5cccc(Cl)c5)cc[nH]c4=O)[nH]c3cc2C1=O` [compound 31], the IC50 in assay [1] was in the range of 0.5 to 5 µM; in assay [2] it was 5 to 15 µM.
Turning to `Cc1ccc(OC[C@H](O)CNc2cc[nH]c(=O)c2-c2nc3c(C)c4c(cc3[nH]2)CN(C2CCN(C)CC2)C4=O)c(C)c1` [compound 140], the values for the IC50 in assay [1] and in assay [2] were less than 0.5 µM and 0.5 to 5 µM, respectively.
Regarding `CN1CCC(N2C(=O)c3cc4nc(-c5c(NC[C@@H](O)COc6ccc7ccccc7c6)cc[nH]c5=O)[nH]c4cc3C2=O)CC1` [compound 88], the IC50 in assay [1] and in assay [2] was 0.5 to 5 µM in each case.
Turning to `O=C1c2cc3nc(-c4c(NC[C@@H](O)c5cccc(Cl)c5)cc[nH]c4=O)[nH]c3cc2C(=O)N1[C@H]1CN2CCC1CC2` [compound 34], the figures for the IC50 in assay [1] and in assay [2] were 0.5 to 5 µM and greater than 15 µM, respectively.
Consider `Cc1ccc(OC[C@H](O)CNc2cc[nH]c(=O)c2-c2nc3c(C)c4c(cc3[nH]2)C(=O)N(C2CCN(C)CC2)C4=O)c(C)c1` [compound 110], for which the IC50 in assay [1] was less than 0.5 µM; in assay [2], 5 to 15 µM.
As to `Cc1c(Cl)cccc1OC[C@H](O)CNc1cc[nH]c(=O)c1-c1nc2cc3c(cc2[nH]1)C(=O)N(C1CCN(C)CC1)C3=O` [compound 94], the IC50 is less than 0.5 µM in assay [1] and 0.5 to 5 µM in assay [2].
